Biological target: T1, KIT-autoinhibited (Homo sapiens, UniProt P10721)
T1 construct: purchased Eurofins DiscoverX KINOMEscan (scanMAX 468)
Assay: KINOMEscan
Assay type: binding
Conditions: read-out: Percent Control

T1 sequence (P10721 26-976): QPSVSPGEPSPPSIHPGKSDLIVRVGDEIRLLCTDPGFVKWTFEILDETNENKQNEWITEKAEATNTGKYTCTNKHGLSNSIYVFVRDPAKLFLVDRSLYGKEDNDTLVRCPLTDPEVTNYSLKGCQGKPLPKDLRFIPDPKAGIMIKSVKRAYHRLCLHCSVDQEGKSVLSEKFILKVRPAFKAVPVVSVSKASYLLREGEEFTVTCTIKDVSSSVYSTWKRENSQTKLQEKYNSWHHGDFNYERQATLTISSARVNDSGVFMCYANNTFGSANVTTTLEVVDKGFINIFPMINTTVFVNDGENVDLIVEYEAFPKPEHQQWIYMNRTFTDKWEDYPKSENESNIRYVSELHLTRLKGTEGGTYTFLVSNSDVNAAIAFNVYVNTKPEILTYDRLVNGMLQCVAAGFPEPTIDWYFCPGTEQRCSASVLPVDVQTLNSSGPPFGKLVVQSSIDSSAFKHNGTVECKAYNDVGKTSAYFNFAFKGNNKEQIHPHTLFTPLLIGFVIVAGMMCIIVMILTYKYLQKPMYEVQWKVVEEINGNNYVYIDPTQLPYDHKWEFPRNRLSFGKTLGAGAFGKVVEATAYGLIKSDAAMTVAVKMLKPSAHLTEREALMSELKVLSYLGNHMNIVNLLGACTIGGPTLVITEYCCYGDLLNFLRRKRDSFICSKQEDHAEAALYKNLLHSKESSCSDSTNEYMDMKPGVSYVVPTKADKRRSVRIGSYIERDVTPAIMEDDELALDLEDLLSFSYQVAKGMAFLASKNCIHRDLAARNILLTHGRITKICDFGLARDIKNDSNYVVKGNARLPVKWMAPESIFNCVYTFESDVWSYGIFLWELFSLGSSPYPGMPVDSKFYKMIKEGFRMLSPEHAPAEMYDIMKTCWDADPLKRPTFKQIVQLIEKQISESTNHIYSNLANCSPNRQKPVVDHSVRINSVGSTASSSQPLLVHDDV

Q: How did the remaining binding at 1 µM turn out when `Cc1ccc(-n2cc(COc3cccc4cnc(Nc5cccc(Cl)c5)nc34)nn2)c([N+](=O)[O-])c1` [DB18] was run?
A: 97%
